Test results as given in PubChem BioAssay (NCI).
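Tested at 5 concentrations; 48 h exposure; 96-well plates; endpoints linearly interpolated, else capped at highest concentration. GI50 = concentration required for 50% inhibition of growth. TGI denotes the concentration required for complete inhibition of growth.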

What was measured:
Assay in all cases: NCI anticancer screen, dose series, 48 h
[1] = system: 786-0 renal
[2] = system: A498 renal
[3] = system: A549 NSCLC
[4] = system: ACHN renal
[5] = system: BT-549 breast
[6] = system: CAKI-1 renal
[7] = system: CCRF-CEM leukemia
[8] = system: COLO 205 colon
[9] = system: DU-145 prostate
[10] = system: EKVX NSCLC
[11] = system: HCC-2998 colon
[12] = system: HCT-116 colon
[13] = system: HCT-15 colon
[14] = system: HL-60(TB) leukemia
[15] = system: HOP-62 NSCLC
[16] = system: HOP-92 NSCLC
[17] = system: HS 578T breast
[18] = system: HT29 colon
[19] = system: IGROV1 ovarian
[20] = system: K-562 leukemia
[21] = system: KM12 colon
[22] = system: LOX IMVI melanoma
[23] = system: M14 melanoma
[24] = system: MALME-3M melanoma
[25] = system: MCF7 breast
[26] = system: MDA-MB-231 breast
[27] = system: MDA-MB-435
[28] = system: MDA-MB-468 breast
[29] = system: MOLT-4 leukemia
[30] = system: NCI-H226 lung
[31] = system: NCI-H23 lung
[32] = system: NCI-H460 lung
[33] = system: NCI-H522 lung
[34] = system: NCI/ADR-RES ovarian
[35] = system: OVCAR-3 ovarian
[36] = system: OVCAR-4 ovarian
[37] = system: OVCAR-5 ovarian
[38] = system: OVCAR-8 ovarian
[39] = system: PC-3 prostate
[40] = system: RPMI-8226 leukemia
[41] = system: RXF 393 renal
[42] = system: SF-268 CNS
[43] = system: SF-295 CNS
[44] = system: SF-539 CNS
[45] = system: SK-MEL-2 melanoma
[46] = system: SK-MEL-28 melanoma
[47] = system: SK-MEL-5 melanoma
[48] = system: SK-OV-3 ovarian
[49] = system: SN12C renal
[50] = system: SNB-19 CNS
[51] = system: SNB-75 CNS
[52] = system: SR leukemia
[53] = system: SW-620 colon
[54] = system: T-47D breast
[55] = system: TK-10 renal
[56] = system: U251 CNS
[57] = system: UACC-257 melanoma
[58] = system: UACC-62 melanoma
[59] = system: UO-31 renal

Compound: Cn1cc(-c2nnc(N)nc2-c2c[nH]c3ccccc23)c2cc(Br)cnc21
- GI50 [1]: 9.51 µM
- TGI [1]: 26.3 µM
- GI50 [2]: 12.3 µM
- TGI [2]: 24.8 µM
- GI50 [3]: 12.7 µM
- TGI [3]: 46.9 µM
- GI50 [4]: 5.41 µM
- TGI [4]: 19.2 µM
- GI50 [5]: 5.94 µM
- TGI [5]: 19.8 µM
- GI50 [6]: 10.7 µM
- TGI [6]: 22.5 µM
- GI50 [7]: 4.8 µM
- TGI [7]: 33.6 µM
- GI50 [8]: 7.03 µM
- TGI [8]: 21.1 µM
- GI50 [9]: 14.5 µM
- TGI [9]: 28.8 µM
- GI50 [10]: 13.2 µM
- TGI [10]: 28.5 µM
- GI50 [11]: 10.1 µM
- TGI [11]: 23.7 µM
- GI50 [12]: 8.67 µM
- TGI [12]: 21.2 µM
- GI50 [13]: 4.68 µM
- TGI [13]: 32 µM
- GI50 [14]: 4.63 µM
- TGI [14]: 34.6 µM
- GI50 [15]: 9.73 µM
- TGI [15]: 25.9 µM
- GI50 [16]: 4.44 µM
- TGI [16]: 24.1 µM
- GI50 [17]: 4.92 µM
- TGI [17]: 32 µM
- GI50 [18]: 10 µM
- TGI [18]: 27.3 µM
- GI50 [19]: 2.6 µM
- TGI [19]: 17.3 µM
- GI50 [20]: 2.99 µM
- TGI [20]: > 100 µM
- GI50 [21]: 13.1 µM
- TGI [21]: 27.6 µM
- GI50 [22]: 5.19 µM
- TGI [22]: 26.5 µM
- GI50 [23]: 10.8 µM
- TGI [23]: 23.9 µM
- GI50 [24]: 8.27 µM
- TGI [24]: 20.7 µM
- GI50 [25]: 1.5 µM
- TGI [25]: 15 µM
- GI50 [26]: 7.8 µM
- TGI [26]: 27.6 µM
- GI50 [27]: 3.11 µM
- TGI [27]: 10.4 µM
- GI50 [28]: 2.38 µM
- TGI [28]: 12.8 µM
- GI50 [29]: 3.37 µM
- TGI [29]: 27.3 µM
- GI50 [30]: 12.2 µM
- TGI [30]: 36.7 µM
- GI50 [31]: 13.9 µM
- TGI [31]: 36 µM
- GI50 [32]: 5.02 µM
- TGI [32]: 21 µM
- GI50 [33]: 3.78 µM
- TGI [33]: 21.6 µM
- GI50 [34]: 10.7 µM
- TGI [34]: 36.3 µM
- GI50 [35]: 11.1 µM
- TGI [35]: 23.4 µM
- GI50 [36]: 7.09 µM
- TGI [36]: 21.2 µM
- GI50 [37]: 14.6 µM
- TGI [37]: 29.8 µM
- GI50 [38]: 12.5 µM
- TGI [38]: 28.9 µM
- GI50 [39]: 8.26 µM
- TGI [39]: > 100 µM
- GI50 [40]: 6.43 µM
- TGI [40]: > 100 µM
- GI50 [41]: 3.37 µM
- TGI [41]: 20.3 µM
- GI50 [42]: 10.7 µM
- TGI [42]: 27.3 µM
- GI50 [43]: 4.07 µM
- TGI [43]: 17.5 µM
- GI50 [44]: 10.7 µM
- TGI [44]: 22.6 µM
- GI50 [45]: 12.3 µM
- TGI [45]: 27.1 µM
- GI50 [46]: 10.9 µM
- TGI [46]: 22.8 µM
- GI50 [47]: 6.84 µM
- TGI [47]: 19.8 µM
- GI50 [48]: 16.6 µM
- TGI [48]: 35.6 µM
- GI50 [49]: 10.2 µM
- TGI [49]: 22.2 µM
- GI50 [50]: 12.2 µM
- TGI [50]: 24.8 µM
- GI50 [51]: 2.7 µM
- TGI [51]: 15.6 µM
- GI50 [52]: 1.54 µM
- TGI [52]: 71.2 µM
- GI50 [53]: 10 µM
- TGI [53]: 23.3 µM
- GI50 [54]: 4.12 µM
- TGI [54]: 24.9 µM
- GI50 [55]: 12.8 µM
- TGI [55]: 26.8 µM
- GI50 [56]: 10.5 µM
- TGI [56]: 23.2 µM
- GI50 [57]: 13.4 µM
- TGI [57]: 27.1 µM
- GI50 [58]: 3.14 µM
- TGI [58]: 16.8 µM
- TGI [59]: 14.8 µM
